Source: ChEMBL document CHEMBL1201862, “PubChem BioAssay data set” (2004)
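Cultured in 96-well plates, cells were exposed to test compound for 48 hours across five concentrations. GI50: concentration for 50% inhibition of growth.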 The source made the active and inactive calls. Rule as the data show it: active = GI50 up to about 1.1 µM and inactive = higher.

What was measured:
Assay in all cases: DTP human tumour cell line panel, 48 h
HOP-18 = tested on: HOP-18
RXF 631 = tested on: RXF 631
DMS-114 = tested on: DMS-114
MDA-MB-231 = tested on: MDA-MB-231
PC-3 = tested on: PC-3
BT-549 = tested on: BT-549
Hs-578T = tested on: Hs-578T
DU-145 = tested on: DU-145
NCI/ADR-RES = tested on: NCI/ADR-RES

SMILES	GI50 (HOP-18)	GI50 (RXF 631)	GI50 (DMS-114)	GI50 (MDA-MB-231)	GI50 (PC-3)	GI50 (BT-549)	GI50 (Hs-578T)	GI50 (DU-145)	GI50 (NCI/ADR-RES)
CC(=O)OC1/C=C(\C)C(OC(C)=O)C/C=C(/C)CCC2C(/C=C/C1=O)C2(C)C (centres undefined)	> 100 µM (inactive)	> 100 µM (inactive)	–	–	–	–	–	–	–
O=C1N(C2CCCCC2)CC12CCCCC2	94.6 µM (inactive)	> 100 µM (inactive)	> 100 µM (inactive)	–	–	–	–	–	–
O=c1c2ccccc2nc(-c2ccc(Br)cc2)n1NC1OC(CO)C(O)C(O)C1O (centres undefined)	> 100 µM (inactive)	> 100 µM (inactive)	96.6 µM (inactive)	–	–	–	–	–	–
COc1c2c(nc3ccccc13)-c1cc3c(c(=O)n1C2)COC(=O)C3(O)CC(=O)N1CCOCC1 (centres undefined)	18 µM (inactive)	–	0.664 µM (active)	69.7 µM (inactive)	21.1 µM (inactive)	5.62 µM (inactive)	12.6 µM (inactive)	3.3 µM (inactive)	–
CCC1=CCN(c2ccc(C)cc2)OC1c1ccc(OC)cc1 (centres undefined)	–	52.4 µM (inactive)	> 100 µM (inactive)	–	–	–	–	–	–
CCOC(=O)/C(=C/c1ccc[nH]1)P(=O)(OCC)OCC	> 100 µM (inactive)	> 100 µM (inactive)	> 100 µM (inactive)	–	–	–	–	–	–
C(=C/c1nc2ccccc2o1)/c1ccc2c(c1)OCO2	5.21 µM (inactive)	–	16.9 µM (inactive)	–	–	–	–	–	14.1 µM (inactive)
O=C1NC2OCC(O)C(O1)C2O (centres undefined)	> 100 µM (inactive)	> 100 µM (inactive)	> 100 µM (inactive)	–	–	–	–	–	–
COc1ccc(OC)c(/C=C/NC=O)c1	> 100 µM (inactive)	–	> 100 µM (inactive)	–	> 100 µM (inactive)	–	–	> 100 µM (inactive)	–
C(=C\c1csnn1)/c1cccnc1	> 100 µM (inactive)	81.7 µM (inactive)	> 100 µM (inactive)	–	–	–	–	–	–
C[C@]12CC[C@H](OC3CCCCO3)CC1=CC[C@@H]1C2CC[C@]2(C)/C(=N/OCCC#N)CCC12 (some centres undefined)	> 100 µM (inactive)	33.6 µM (inactive)	4.76 µM (inactive)	–	–	–	–	–	–
CN(C)CC1CCCC1=O (centres undefined)	1.73 µM (inactive)	0.138 µM (active)	1.08 µM (active)	2.64 µM (inactive)	8.09 µM (inactive)	4.97 µM (inactive)	17.9 µM (inactive)	17.5 µM (inactive)	20.7 µM (inactive)
CN(C)/N=C(/c1nc2ccc(Cl)cc2nc1O)C(O)c1ccc(C(O)/C(=N\N(C)C)c2nc3ccc(Cl)cc3nc2O)cc1 (centres undefined)	–	91.4 µM (inactive)	53.7 µM (inactive)	–	–	–	–	–	–
COc1cc(C2C(C(=O)NCc3ccccc3)=C(C)NC(C)=C2C(=O)NCc2ccccc2)ccc1O	–	27.3 µM (inactive)	39.4 µM (inactive)	–	–	–	–	–	–
O=C1NC2(CCCCC2)C2CCCCC(O)C12 (centres undefined)	–	> 100 µM (inactive)	> 100 µM (inactive)	–	–	–	–	–	–
COC(=O)c1cc2c(s1)C(=O)c1ccccc1-2	> 100 µM (inactive)	> 100 µM (inactive)	> 100 µM (inactive)	–	–	–	–	–	–
Cc1ccc(N2Cc3c(ccc4ccccc34)OP2(=O)Oc2ccc(Cl)c(C)c2)cc1 (centres undefined)	> 61.1 µM (inactive)	–	> 67.1 µM (inactive)	–	–	–	–	–	> 78.7 µM (inactive)
C=C1C(=O)O[C@@H]2C[C@@]3(C)[C@H](O)CCC(=C)[C@@H]3C[C@H]12 [ASPERILIN]	–	13.6 µM (inactive)	14.4 µM (inactive)	–	–	–	–	–	–
